Read-outs that look alike come from different tables or passages of the source.
Test: Phase 1 four-period crossover study of relative bioavailability and food effect, Compound 1 Capsules vs Oral Solution, plasma PK
Assay type: in vivo, human
Details: for AUC(0-inf) / AUC(0-t) / Cmax / half-life / Tmax: human, po; for AUC(0-inf) / AUC(0-t) / Cmax / half-life / Tmax / AUC0-inf, geometric mean / AUC0-t, geometric mean / Cmax, geometric mean: plasma, healthy subjects; for AUC(0-inf) / AUC(0-t) / Cmax / half-life / Tmax / AUC0-inf geometric mean ratio (GMR) Test/Reference / AUC0-t geometric mean ratio (GMR) Test/Reference / Cmax geometric mean ratio (GMR) Test/Reference: 30 mg; for Tmax: read-out: tmax, median
Experimental: In a Phase 1, single-center, open-label, four-period, two-sequence crossover study, Compound 1 capsules were evaluated for safety, tolerability, and relative bioavailability. Twelve (12) subjects completed all four periods of the study; subjects who replaced discontinued subjects were allocated to the same randomization sequence as those discontinued. Up to 24 subjects were recruited into the study.
This study consisted of four periods:
Period 1: Subjects (N=20) were randomized on a 1:1 basis to receive a single 30-mg dose of Compound 1 Capsules or a single 30-mg dose of Compound 1 Oral Solution on Day 1. Study drug was administered in the fasting state. Subjects were confined to the inpatient facility from Day −1 until they were discharged on Day 3.
On Day 8, study drug was administered in the fasting state. Subjects were confined to the inpatient facility from Day 7 until they were discharged on Day 10.
Period 3: Food Effect (high fat): All subjects received a single 30 mg dose of Compound 1 Capsules on Day 15. Study drug was administered after a high-fat meal. Subjects were confined to the inpatient facility from Day 14 until they were discharged on Day 17.
Period 4: Food Effect (standard): All subjects received a single 30 mg dose of Compound 1 Capsules on Day 22. Study drug was administered after a standard meal. Subjects were confined to the inpatient facility from Day 21 until they were discharged on Day 24.
Subjects were admitted on the day before the dose was scheduled to be administered (i.e., on Day −1, Day 7, Day 14 and Day 21) in order to undergo the predose assessments.
The Compound 1 Capsules dose was administered as two capsules with 8 ounces (240 mL) of water; both capsules were to be swallowed as quickly as possible. Compound 1 Oral Solution was prepared as approximately 40 mL, to be swallowed all at once, followed by approximately 200 mL of water that was used to rinse the dosing bottle approximately five times. The time of swallowing the initial 40 mL solution or capsules was the time zero for all assessments.
Subjects were not allowed to consume water for 1 hour before and after dosing, except for water consumed during dosing. After 1 hour postdose, water was allowed ad libitum. Subjects were required to fast overnight (minimum of 10 hours) prior to the scheduled dosing. In periods 1 and 2, subjects were administered a standard meal 4 or more hours after the dose was administered.
In period 3 (food effect high-fat meal), subjects were administered a high-fat meal 30 minutes prior to administration of the Compound 1 Capsules. Subjects should have eaten this meal in 30 minutes or less, and the Compound 1 dose was administered 30 minutes after the start of the meal. No other food was allowed for at least 4 hours postdose.
In period 4 (food effect standard meal), subjects were administered a standard meal 30 minutes prior to administration of the Compound 1 Capsules. Subjects should have eaten this meal in 30 minutes or less, and the Compound 1 dose was administered 30 minutes after start of the meal. No other food was allowed for at least 4 hours postdose.
Plasma samples were collected for PK analysis of Compound 1 at the following sampling times relative to dosing in each period: predose on Day 1 and at 15 and 30 minutes and 1, 1.5, 2, 3, 4, 6, 8, 10, 12, 16, 24 (Day 2), and 48 (Day 3) hours postdose.
The plasma samples were kept frozen at approximately −70 to −80° C. until analyzed. They were packed as directed to avoid breakage during transit and with sufficient dry ice to prevent thawing for at least 72 hours. A specimen-identification form or equivalent was completed and sent to the laboratory with each set of samples.
Bioanalyses of plasma samples for the determination of Compound 1 were conducted utilizing validated LC-MS/MS methods at Agilux Laboratories, Worcester, MA.
The BLQ values between evaluable concentrations and the terminal BLQ values were set to ‘missing’. […]

[1] = single 30 mg oral dose, Capsules, fed [high-fat meal]
[2] = single 30 mg oral dose, Capsules, fed [standard meal]
[3] = single 30-mg oral dose, Capsules, fasted
[4] = single 30-mg oral dose, Oral Solution, fasted
[5] = test Fasted Capsules / reference Fasted Solution
[6] = test Fed Capsules [Standard meal] / reference Fasted Capsules
[7] = test Fed Capsules [Standard meal] / reference Fasted Solution
[8] = test Fed Capsules [high-fat meal] / reference Fasted Capsules
[9] = test Fed Capsules [high-fat meal] / reference Fasted Solution

C[C@@]1(O)CC[C@H]2[C@H](CC[C@@H]3[C@@H]2CC[C@]2(C)[C@@H](C(=O)Cn4cc(C#N)cn4)CC[C@@H]32)C1 [Compound 1, 1-(2-((3R,5R,8R,9R,10S,13S,14S,17S)-3-hydroxy-3,13-dimethylhexadecahydro-1H-cyclopenta[a]phenanthren-17-yl)-2-oxoethyl)-1H-pyrazole-4-carbonitrile] gave an AUC(0-inf) (single 30 mg oral dose, Capsules, fed [high-fat meal], read-out: AUC0-inf, arithmetic mean) of 896 ng·h/mL, an AUC(0-inf) (single 30 mg oral dose, Capsules, fed [high-fat meal], read-out: AUC0-inf, geometric mean) of 867 ng·h/mL and an AUC(0-inf) (single 30 mg oral dose, Capsules, fed [high-fat meal], read-out: AUC0-inf, median) of 878 ng·h/mL. For the same compound, the AUC(0-t) (single 30 mg oral dose, Capsules, fed [high-fat meal], read-out: AUC0-t, arithmetic mean) was 846 ng·h/mL, the AUC(0-t) (single 30 mg oral dose, Capsules, fed [high-fat meal], read-out: AUC0-t, geometric mean) was 834 ng·h/mL and the AUC(0-t) (single 30 mg oral dose, Capsules, fed [high-fat meal], read-out: AUC0-t, median) was 822 ng·h/mL. It also gave a Cmax (single 30 mg oral dose, Capsules, fed [high-fat meal], read-out: Cmax, arithmetic mean) of 64.4 ng/mL, a Cmax (single 30 mg oral dose, Capsules, fed [high-fat meal], read-out: Cmax, geometric mean) of 62.8 ng/mL and a Cmax (single 30 mg oral dose, Capsules, fed [high-fat meal], read-out: Cmax, median) of 66.3 ng/mL. For the same compound, the half-life (single 30 mg oral dose, Capsules, fed [high-fat meal], read-out: t1/2, arithmetic mean (converted)) was 12.9 h, the half-life (single 30 mg oral dose, Capsules, fed [high-fat meal], read-out: t1/2, median (converted)) was 12.7 h and the Tmax [1] was 5.97 h. For the same compound, the AUC(0-inf) (single 30 mg oral dose, Capsules, fed [standard meal], read-out: AUC0-inf, arithmetic mean) was 1020 ng·h/mL, the AUC(0-inf) (single 30 mg oral dose, Capsules, fed [standard meal], read-out: AUC0-inf, geometric mean) was 1010 ng·h/mL and the AUC(0-inf) (single 30 mg oral dose, Capsules, fed [standard meal], read-out: AUC0-inf, median) was 1060 ng·h/mL. The AUC(0-t) (single 30 mg oral dose, Capsules, fed [standard meal], read-out: AUC0-t, arithmetic mean) was 852 ng·h/mL, the AUC(0-t) (single 30 mg oral dose, Capsules, fed [standard meal], read-out: AUC0-t, geometric mean) was 838 ng·h/mL and the AUC(0-t) (single 30 mg oral dose, Capsules, fed [standard meal], read-out: AUC0-t, median) was 881 ng·h/mL. It also gave a Cmax (single 30 mg oral dose, Capsules, fed [standard meal], read-out: Cmax, arithmetic mean) of 65.2 ng/mL, a Cmax (single 30 mg oral dose, Capsules, fed [standard meal], read-out: Cmax, geometric mean) of 63.1 ng/mL and a Cmax (single 30 mg oral dose, Capsules, fed [standard meal], read-out: Cmax, median) of 63.2 ng/mL. For the same compound, the half-life (single 30 mg oral dose, Capsules, fed [standard meal], read-out: t1/2, arithmetic mean (converted)) was 14.9 h, the half-life (single 30 mg oral dose, Capsules, fed [standard meal], read-out: t1/2, median (converted)) was 15.8 h and the Tmax [2] was 4 h. It also gave an AUC(0-inf) (single 30-mg oral dose, Capsules, fasted, read-out: AUC0-inf, arithmetic mean) of 642 ng·h/mL, an AUC(0-inf) (single 30-mg oral dose, Capsules, fasted, read-out: AUC0-inf, geometric mean) of 640 ng·h/mL and an AUC(0-inf) (single 30-mg oral dose, Capsules, fasted, read-out: AUC0-inf, median) of 650 ng·h/mL. It also gave an AUC(0-t) (single 30-mg oral dose, Capsules, fasted, read-out: AUC0-t, arithmetic mean) of 544 ng·h/mL, an AUC(0-t) (single 30-mg oral dose, Capsules, fasted, read-out: AUC0-t, geometric mean) of 530 ng·h/mL and an AUC(0-t) (single 30-mg oral dose, Capsules, fasted, read-out: AUC0-t, median) of 552 ng·h/mL. For the same compound, the Cmax (single 30-mg oral dose, Capsules, fasted, read-out: Cmax, arithmetic mean) was 23 ng/mL, the Cmax (single 30-mg oral dose, Capsules, fasted, read-out: Cmax, geometric mean) was 21.8 ng/mL and the Cmax (single 30-mg oral dose, Capsules, fasted, read-out: Cmax, median) was 20.4 ng/mL. It also gave a half-life (single 30-mg oral dose, Capsules, fasted, read-out: t1/2, arithmetic mean (converted)) of 15.6 h, a half-life (single 30-mg oral dose, Capsules, fasted, read-out: t1/2, median (converted)) of 15.7 h and a Tmax [3] of 4.02 h. It also gave an AUC(0-inf) (single 30-mg oral dose, Oral Solution, fasted, read-out: AUC0-inf, arithmetic mean) of 798 ng·h/mL, an AUC(0-inf) (single 30-mg oral dose, Oral Solution, fasted, read-out: AUC0-inf, geometric mean) of 770 ng·h/mL and an AUC(0-inf) (single 30-mg oral dose, Oral Solution, fasted, read-out: AUC0-inf, median) of 816 ng·h/mL. It also gave an AUC(0-t) (single 30-mg oral dose, Oral Solution, fasted, read-out: AUC0-t, arithmetic mean) of 795 ng·h/mL, an AUC(0-t) (single 30-mg oral dose, Oral Solution, fasted, read-out: AUC0-t, geometric mean) of 776 ng·h/mL and an AUC(0-t) (single 30-mg oral dose, Oral Solution, fasted, read-out: AUC0-t, median) of 788 ng·h/mL. The Cmax (single 30-mg oral dose, Oral Solution, fasted, read-out: Cmax, arithmetic mean) was 120 ng/mL, the Cmax (single 30-mg oral dose, Oral Solution, fasted, read-out: Cmax, geometric mean) was 114 ng/mL and the Cmax (single 30-mg oral dose, Oral Solution, fasted, read-out: Cmax, median) was 115 ng/mL. It also gave a half-life (single 30-mg oral dose, Oral Solution, fasted, read-out: t1/2, arithmetic mean (converted)) of 13.5 h, a half-life (single 30-mg oral dose, Oral Solution, fasted, read-out: t1/2, median (converted)) of 13.3 h and a Tmax [4] of 1 h. The “AUC0-inf, geometric mean” value [1] was 866.90 ng·h/mL, the “AUC0-t, geometric mean” value [1] was 834.06 ng·h/mL and the “AUC0-inf, geometric mean” value [2] was 1013.04 ng·h/mL. For the same compound, the “AUC0-t, geometric mean” value [2] was 837.55 ng·h/mL, the “Cmax, geometric mean” value [2] was 63.12 ng/mL and the “AUC0-inf, geometric mean” value [3] was 639.69 ng·h/mL. The “AUC0-t, geometric mean” value [3] was 529.62 ng·h/mL, the “Cmax, geometric mean” value [3] was 21.81 ng/mL and the “AUC0-inf, geometric mean” value [4] was 770.31 ng·h/mL. For the same compound, the “AUC0-t, geometric mean” value [4] was 776.27 ng·h/mL, the “AUC0-inf geometric mean ratio (GMR) Test/Reference” value [5] was 0.830 and the “AUC0-t geometric mean ratio (GMR) Test/Reference” value [5] was 0.682. For the same compound, the “Cmax geometric mean ratio (GMR) Test/Reference” value [5] was 0.191, the “AUC0-inf geometric mean ratio (GMR) Test/Reference” value [6] was 1.584 and the “AUC0-t geometric mean ratio (GMR) Test/Reference” value [6] was 1.581. The “Cmax geometric mean ratio (GMR) Test/Reference” value [6] was 2.894, the “AUC0-inf geometric mean ratio (GMR) Test/Reference” value [7] was 1.315 and the “AUC0-t geometric mean ratio (GMR) Test/Reference” value [7] was 1.079. For the same compound, the “Cmax geometric mean ratio (GMR) Test/Reference” value [7] was 0.552, the “AUC0-inf geometric mean ratio (GMR) Test/Reference” value [8] was 1.355 and the “AUC0-t geometric mean ratio (GMR) Test/Reference” value [8] was 1.575. For the same compound, the “Cmax geometric mean ratio (GMR) Test/Reference” value [8] was 2.879, the “AUC0-inf geometric mean ratio (GMR) Test/Reference” value [9] was 1.125 and the “AUC0-t geometric mean ratio (GMR) Test/Reference” value [9] was 1.074. For the same compound, the “Cmax geometric mean ratio (GMR) Test/Reference” value [9] was 0.549.

— patent US20230310459A1, “NEUROACTIVE STEROIDS AND THEIR METHODS OF USE” (Sage Therapeutics, Inc., priority 2017, published 2023)
